biological target: TTR variant Y78F (Homo sapiens, UniProt P02766, Y98F); experiment: Kinetic turbidity assay of acid induced fibril formation; format: biochemical; conditions: inhibitor concentration at which the initial rate of fibril formation is half; Y78F TTR 0.4 mg/mL, pH 4.2, 37 °C; read-out: Kinetic turbidity assay IC50
Source text: Two different parameters can be derived from this kinetic test. The IC50 value is the inhibitor concentration at which the initial rate of fibril formation is half than that in the absence of inhibitor. In turn, RA (%) can be defined as the percent reduction of fibril formation rate at high inhibitor concentration relative to the rate at zero concentration of tested compound.
An in vitro turbidimetric test in a high troughput mode was used to assess the fibrillogenesis inhibition potency of the compounds of the library. The mutant protein TTRY78F was incubated with various concentrations of test compounds in 96 well microplates. After lowering the pH of the solutions to 4.2, the incubation was extended for 1.5 h while recording the absorbance at 340 nm at 1 min intervals. […] (Figure S1).
The mutant Y78F TTR protein (0.4 mg.mL^-1) was incubated for 30 min (pH 7.6, 37 °C) with 6 concentrations of test compounds ranging from 0 to 40 µM in 96-well microplates.
IC50% value is the inhibitor concentration at which the initial rate of fibril formation is half of that in the absence of inhibitor. RA(%) is the percentage of reduction in fibril formation rate induced by a given concentration of test compound relative to the rate of experiments at zero concentration of test compound.

SMILES | IC50
NC(=O)c1cc(-c2ccc(F)cc2F)ccc1O [2a, 2’,4’-difluoro-4-hydroxy-[1,1’]-biphenyl-3-carboxamide] | > 50 µM
COC(=O)c1cc(-c2ccc(F)cc2F)ccc1O [3a, 2’,4’-difluoro-4-hydroxy-[1,1’]-biphenyl-3-carboxylic methyl ester] | > 50 µM
CCOC(=O)c1cc(-c2ccc(F)cc2F)ccc1O [4a, 2’,4’-difluoro-4-hydroxy-[1,1’]-biphenyl-3-carboxylic acid ethyl ester] | > 50 µM
Nc1ccc(-c2ccc(F)cc2F)cc1C(=O)O [5a, 2’,4’-difluoro-4-amino-[1,1’]-biphenyl-3-carboxylic acid] | > 50 µM
Nc1c(I)cc(-c2ccc(F)cc2F)cc1C(=O)O [5b, 2’,4’-difluoro-4-amino-3-iodo-[1,1’]-biphenyl-3-carboxylic acid] | 16.3 µM
COC(=O)c1cc(-c2ccc(F)cc2F)ccc1N [6a, 2’,4’-difluoro-4-amino-[1,1’]-biphenyl-3-carboxylic acid methyl ester] | 41 µM
CC(=O)Oc1ccc(-c2ccc(F)cc2F)cc1C(=O)O [7a, 4-Acetoxy-2’,4’-difluoro-[1,1’]-biphenyl-3-carboxylic acid] | > 50 µM
CC(=O)Oc1c(I)cc(-c2ccc(F)cc2F)cc1C(=O)O [7b, 4-Acetoxy-2’,4’-difluoro-5-iodo-[1,1’]-biphenyl-3-carboxylic acid] | 4.8 µM
O=C(O)CNC(=O)c1cc(-c2ccc(F)cc2F)ccc1O [8a, N-[2’,4’-difluoro-4-hydroxy-[1,1’]-biphenyl-3-carbonyl]-glycine] | > 50 µM
O=C(O)CNC(=O)c1cc(-c2ccc(F)cc2F)cc(I)c1O [8b, N-[2’-,4’-difluoro-4-hydroxy-5-iodo-[1,1’]-biphenyl-3-carbonyl]-glycine] | 11.1 µM
C[C@H](NC(=O)c1cc(-c2ccc(F)cc2F)ccc1O)C(=O)O [9a, N-[2’,4’-difluoro-4-hydroxy-[1,1’]-biphenyl-3-carbonyl]-L-alanine] | > 50 µM
COC(=O)[C@H](C)NC(=O)c1cc(-c2ccc(F)cc2F)ccc1O [10a, N-[2’,4’-difluoro-4-hydroxy-[1,1’]-biphenyl-3-carbonyl]-L-alanine methyl ester] | > 50 µM
CCOC(=O)[C@H](C)NC(=O)c1cc(-c2ccc(F)cc2F)ccc1O [11a, N-[2’,4’-difluoro-4-hydroxy-[1,1’]-biphenyl-3-carbonyl]-L-alanine ethyl ester] | > 50 µM
CC(C)C[C@H](NC(=O)c1cc(-c2ccc(F)cc2F)ccc1O)C(=O)O [12a, N-[2’,4’-difluoro-4-hydroxy-[1,1’]-biphenyl-3-carbonyl]-L-leucine] | > 50 µM
CC(C)C[C@H](NC(=O)c1cc(-c2ccc(F)cc2F)cc(I)c1O)C(=O)O [12b, N-[2’,4’-difluoro-4-hydroxy-5-iodo-[1,1’]-biphenyl-3-carbonyl]-L-leucine] | 5 µM

More lines, now with the values ahead:

IC50 | SMILES
12.4 µM | NC(=O)c1cc(-c2ccc(F)cc2F)cc(I)c1O [2b, 2’,4’-difluoro-4-hydroxy-5-iodo-[1,1’]-biphenyl-3-carboxamide]
6.1 µM | COC(=O)c1cc(-c2ccc(F)cc2F)cc(I)c1O [3b, 2’,4’-difluoro-4-hydroxy-5-iodo-[1,1’]-biphenyl-3-carboxylic methyl ester]
6.9 µM | CCOC(=O)c1cc(-c2ccc(F)cc2F)cc(I)c1O [4b]
7.5 µM | COC(=O)c1cc(-c2ccc(F)cc2F)cc(I)c1N [6b, 2’,4’-difluoro-4-amino-3-iodo-[1,1’]-biphenyl-3-carboxylic acid methyl ester]
5.8 µM | CC(NC(=O)c1cc(-c2ccc(F)cc2F)cc(I)c1O)C(=O)O [9b, N-[2’,4’-difluoro-4-hydroxy-5-iodo-hydroxy-[1,1’]-biphenyl-3-carbonyl]-L-alanine]
5.5 µM | COC(=O)[C@H](C)NC(=O)c1cc(-c2ccc(F)cc2F)cc(I)c1O [10b, N-[2’,4’-difluoro-4-hydroxy-5-iodo-[1,1’]-biphenyl-3-carbonyl] -L-alanine methyl ester]
